Measurements: patent publication US11725000B2, “Apoptosis inhibitors” (National Institute of Biological Sciences, Beijing, priority 2017, dated 2023)

test system: U2OS_Bim cells; assay: Apoptosis inhibition assay (Bim-induced apoptosis, cell viability by ATP level); type: cell-based; conditions: not given
Procedure: A chemical library containing 200000 compounds was screened according to the following procedure: U2OS_Bim cells (a cell line in which the BH3-only protein Bim can be inducibly expressed by the addition of Doxycycline to the growth medium)^[2] were plated in 384-well plates with 30 μl medium at a density of 500 cells per well. 16 hrs after plating, test compounds were transferred from stock plates to the assay plates with the cultured cells. Positive control (20 μM zVAD) and negative control (DMSO) were added to every plate. 1 hr after compound treatment, 0.1 ug/mL Doxycyclin (DOX) was added to induce the expression of the Bim protein. After 24 hrs, cell viability was determined by measuring the ATP levels using a Cell Titer-Glo kit (Promega, G7570) according to the manufacturer's instructions. Luminescence was recorded with a PerkinElmer EnSpire Multimode Plate Reader. Compounds that could rescue cell viability to a level above 50% were selected; these compounds were then screened a second time for assurance.
U2OS_Bim or U2OS_tBid cells were plated at a density of 3000 cells per well in 96-well plates. 24 hrs later, cells were treated with experimental compounds, zVAD (positive control) and DMSO (Negative control) for one hour. The cells were then treated with 0.1 μg/mL DOX to trigger apoptosis. 24 hours after the addition of DOX, cell viability was determined by measuring the ATP levels using a Cell Titer-Glo kit. Cell survival rate was calculated.
U2OS_Bim cells (a U2OS stable cell line transfected with a Bim transgene) were cultured in DMEM culture medium (Gibico). On day one, U2OS_Bim cells were plated in 96-well plates at a density of 3000 cells per well. On day two, cells were pretreated with compounds for one hour. Then cells were treated with 0.1 μg/mL doxycycline (DOX) to trigger apoptosis. 24 hours after DOX treatment, cell viability was determined by measuring the ATP levels using the Cell Titer-Glo kit (G7570, Promega), according to the manufacturer's instructions. Luminescence was recorded with a PerkinElmer EnSpire Multimode Plate Reader. Survived cells were normalized to those cells treated with DMSO. zVAD (20 μM) was used as a positive control. Activity data for compounds […] are represented as means f standard deviation of duplicates; activity data for compounds 187-274 are estimated based on preliminary results.

Row | Compound | EC50 [µM]
1 | CS(=O)(=O)c1nc(-c2cccc(OCc3ccccc3)c2)cc(C(F)(F)F)n1 [Compound 75, 4-(3-(benzyloxy)phenyl)-2-(methylsulfonyl)-6-(trifluoromethyl)pyrimidine] | 1 to 20

same assay, conditions: U2OS_Bim cells; means of duplicates; numbering of Tables 4a/4b; read-out: EC50

Row | Compound | EC50 [µM]
2 | CS(=O)(=O)c1nc(-c2cccs2)cc(-n2cccn2)n1 [Compound 36, 2-(methylsulfonyl)-4-(1H-pyrazol-1-yl)-6-(thiophen-2-yl)pyrimidine] | 1 to 10
3 | CS(=O)(=O)c1nc(-c2cccs2)cc(-c2cccs2)n1 [Compound 37, 2-(methylsulfonyl)-4,6-di(thiophen-2-yl)pyrimidine] | 1 to 10
4 | CS(=O)(=O)c1nc(-c2cccs2)cc(N2CCCC2=O)n1 [Compound 38, 1-(2-(methylsulfonyl)-6-(thiophen-2-yl)pyrimidin-4-yl)pyrrolidin-2-one] | < 100
5 | CS(=O)(=O)c1nc(-c2cccs2)cc(-n2ccccc2=O)n1 [Compound 39, 1-(2-(methylsulfonyl)-6-(thiophen-2-yl)pyrimidin-4-yl)pyridine-2 (1H)-one] | < 100
6 | CS(=O)(=O)c1nc(-c2cccs2)cc(N2CCOCC2)n1 [Compound 40, 4-(2-(methylsulfonyl)-6-(thiophen-2-yl)pyrimidin-4-yl)morpholine] | < 100
7 | CS(=O)(=O)c1nc(N=[N+]=[N-])cc(-c2cccs2)n1 [Compound 41, 4-azido-2-(methylsulfonyl)-6-(thiophen-2-yl)pyrimidine] | < 100
8 | CN(C)c1cc(-c2cccs2)nc([S+](C)[O-])n1 (centres unmarked) [Compound 42, N,N-dimethyl-2-(methylsulfinyl)-6-(thiophen-2-yl)pyrimidin-4-amine] | < 100
9 | CS(=O)(=O)c1nc(-c2ccccc2F)cc(C(F)(F)F)n1 [Compound 43, 4-(2-fluorophenyl)-2-(methylsulfonyl)-6-(trifluoromethyl)pyrimidine] | 1 to 20
10 | CS(=O)(=O)c1nc(-c2cccc(F)c2)cc(C(F)(F)F)n1 [Compound 44, 4-(3-fluorophenyl)-2-(methylsulfonyl)-6-(trifluoromethyl)pyrimidine] | 1 to 10
11 | CS(=O)(=O)c1nc(-c2ccc(F)cc2)cc(C(F)(F)F)n1 [Compound 45, 4-(4-fluorophenyl)-2-(methylsulfonyl)-6-(trifluoromethyl)pyrimidine] | 1 to 10
12 | Cc1ccccc1-c1cc(C(F)(F)F)nc(S(C)(=O)=O)n1 [Compound 46, 2-(methylsulfonyl)-4-(o-tolyl)-6-(trifluoromethyl)pyrimidine] | 1 to 20
13 | Cc1cccc(-c2cc(C(F)(F)F)nc(S(C)(=O)=O)n2)c1 [Compound 47, 2-(methylsulfonyl)-4-(m-tolyl)-6-(trifluoromethyl)pyrimidine] | 1 to 10
14 | Cc1ccc(-c2cc(C(F)(F)F)nc(S(C)(=O)=O)n2)cc1 [Compound 48, 2-(methylsulfonyl)-4-(p-tolyl)-6-(trifluoromethyl)pyrimidine] | < 100
15 | C#Cc1ccc(-c2cc(C(F)(F)F)nc(S(C)(=O)=O)n2)cc1 [Compound 49, 4-(4-ethynylphenyl)-2-(methylsulfonyl)-6-(trifluoromethyl)pyrimidine] | < 100
16 | CS(=O)(=O)c1nc(-c2cccc(O)c2)cc(C(F)(F)F)n1 [Compound 50, 3-(2-(methylsulfonyl)-6-(trifluoromethyl)pyrimidin-4-yl)phenol] | < 100
17 | COc1ccccc1-c1cc(C(F)(F)F)nc(S(C)(=O)=O)n1 [Compound 51, 4-(2-methoxyphenyl)-2-(methylsulfonyl)-6-(trifluoromethyl)pyrimidine] | 1 to 10

More lines, now with the values ahead:

Row | EC50 [µM] | Compound
18 | < 100 | COc1cccc(-c2cc(C(F)(F)F)nc(S(C)(=O)=O)n2)c1 [Compound 52]
19 | < 100 | COc1ccc(-c2cc(C(F)(F)F)nc(S(C)(=O)=O)n2)cc1 [Compound 53, 4-(4-methoxyphenyl)-2-(methylsulfonyl)-6-(trifluoromethyl)pyrimidine]
20 | 1 to 20 | COc1ccc(-c2cc(C(F)(F)F)nc([S+](C)[O-])n2)cc1 (centres unmarked) [Compound 54, 4-(4-methoxyphenyl)-2-(methylsulfinyl)-6-(trifluoromethyl)pyrimidine]
21 | 1 to 20 | CS(=O)(=O)c1nc(-c2ccccc2C#N)cc(C(F)(F)F)n1 [Compound 55, 2-(2-(methylsulfonyl)-6-(trifluoromethyl)pyrimidin-4-yl)benzonitrile]
22 | 1 to 20 | CS(=O)(=O)c1nc(-c2cccc(C#N)c2)cc(C(F)(F)F)n1 [Compound 56, 3-(2-(methylsulfonyl)-6-(trifluoromethyl)pyrimidin-4-yl)benzonitrile]
23 | < 100 | CS(=O)(=O)c1nc(-c2ccc(C#N)cc2)cc(C(F)(F)F)n1 [Compound 57]
24 | < 100 | COC(=O)c1ccccc1-c1cc(C(F)(F)F)nc(S(C)(=O)=O)n1 [Compound 58, methyl 2-(2-(methylsulfonyl)-6-(trifluoromethyl)pyrimidin-4-yl)benzoate]
25 | 1 to 10 | COC(=O)c1ccccc1-c1cc(C(F)(F)F)nc([S+](C)[O-])n1 (centres unmarked) [Compound 59, methyl 2-(2-(methylsulfinyl)-6-(trifluoromethyl)pyrimidin-4-yl)benzoate]
26 | < 100 | COC(=O)c1cccc(-c2cc(C(F)(F)F)nc(S(C)(=O)=O)n2)c1 [Compound 60, methyl 3-(2-(methylsulfonyl)-6-(trifluoromethyl)pyrimidin-4-yl)benzoate]
27 | < 100 | COC(=O)c1ccc(-c2cc(C(F)(F)F)nc(S(C)(=O)=O)n2)cc1 [Compound 61, methyl 4-(2-(methylsulfonyl)-6-(trifluoromethyl)pyrimidin-4-yl)benzoate]
28 | < 100 | COC(=O)c1ccc(-c2cc(C(F)(F)F)nc([S+](C)[O-])n2)cc1 (centres unmarked) [Compound 62, methyl 4-(2-(methylsulfinyl)-6-(trifluoromethyl)pyrimidin-4-yl)benzoate]
29 | < 100 | CS(=O)(=O)c1nc(-c2ccccc2C(=O)O)cc(C(F)(F)F)n1 [Compound 63, 2-(2-(methylsulfonyl)-6-(trifluoromethyl)pyrimidin-4-yl)benzoic acid]
30 | < 100 | CS(=O)(=O)c1nc(-c2ccc(C(=O)O)cc2)cc(C(F)(F)F)n1 [Compound 64, 4-(2-(methylsulfonyl)-6-(trifluoromethyl)pyrimidin-4-yl)benzoic acid]
31 | < 100 | C[S+]([O-])c1nc(-c2ccc(C(=O)O)cc2)cc(C(F)(F)F)n1 (centres unmarked) [Compound 65, 4-(2-(methylsulfinyl)-6-(trifluoromethyl)pyrimidin-4-yl)benzoic acid]
32 | 1 to 10 | CS(=O)(=O)c1nc(-c2cccc(C(N)=O)c2)cc(C(F)(F)F)n1 [Compound 66, 3-(2-(methylsulfonyl)-6-(trifluoromethyl)pyrimidin-4-yl)benzamide]
33 | < 100 | CNC(=O)c1ccccc1-c1cc(C(F)(F)F)nc(S(C)(=O)=O)n1 [Compound 67, N-methyl-2-(2-(methylsulfonyl)-6-(trifluoromethyl)pyrimidin-4-yl)benzamide]
34 | 1 to 20 | CNC(=O)c1ccc(-c2cc(C(F)(F)F)nc(S(C)(=O)=O)n2)cc1 [Compound 68, N-methyl-4-(2-(methylsulfonyl)-6-(trifluoromethyl)pyrimidin-4-yl)benzamide]
35 | 1 to 10 | CN(C)C(=O)c1cccc(-c2cc(C(F)(F)F)nc(S(C)(=O)=O)n2)c1 [Compound 69, N,N-dimethyl-3-(2-(methylsulfonyl)-6-(trifluoromethyl)pyrimidin-4-yl)benzamide]
36 | 1 to 10 | CS(=O)(=O)c1nc(-c2cccc(Cn3ccccc3=O)c2)cc(C(F)(F)F)n1 [Compound 70, 1-(3-(2-(methylsulfonyl)-6-(trifluoromethyl)pyrimidin-4-yl)benzyl) pyridin-2 (1H)-one]
37 | < 100 | C#CCOc1cccc(-c2cc(C(F)(F)F)nc(S(C)(=O)=O)n2)c1 [Compound 71, 2-(methylsulfonyl)-4-(3-(prop-2-yn-1-yloxy)phenyl)-6-(trifluoromethyl) pyrimidine]
38 | 1 to 10 | C#CCOc1cccc(-c2cc(C(F)(F)F)nc([S+](C)[O-])n2)c1 (centres unmarked) [Compound 72, 2-(methylsulfinyl)-4-(3-(prop-2-yn-1-yloxy)phenyl)-6-(trifluoromethyl) pyrimidine]
39 | 1 to 10 | CS(=O)(=O)c1nc(-c2cccc(Oc3ccccc3)c2)cc(C(F)(F)F)n1 [Compound 73, 2-(methylsulfonyl)-4-(3-phenoxyphenyl)-6-(trifluoromethyl)pyrimidine]
40 | < 100 | C[S+]([O-])c1nc(-c2cccc(Oc3ccccc3)c2)cc(C(F)(F)F)n1 (centres unmarked) [Compound 74, 2-(methylsulfinyl)-4-(3-phenoxyphenyl)-6-(trifluoromethyl)pyrimidine]
41 | 1 to 20 | CS(=O)(=O)c1nc(-c2cccc3ccccc23)cc(C(F)(F)F)n1 [Compound 76, 2-(methylsulfonyl)-4-(naphthalen-1-yl)-6-(trifluoromethyl)pyrimidine]
